Activity calls are given as the source filed them. The rule behind the calls is not given here.
Experiments:
P2Y purinoceptor 6 [1] = biological target: T1, P2Y purinoceptor 6 (Homo sapiens, UniProt Q15077); assay: Antagonist activity at human P2Y6R expressed in HEK293 cells assessed as inhibition of UDP-induced IP3 production preincubated for 0.5 hrs followed by UDP stimulation and measured after 12 hrs by ELISA analysis; format: functional, cell-based
P2Y purinoceptor 6 [2] = biological target: T1, P2Y purinoceptor 6; assay: Binding affinity to human recombinant P2Y6R expressed in HEK293 cells at 500 uM pretreated for 1 hrs followed by pulldown using streptavidin agarose resin by Western blot analysis; format: cell-based; conditions: filed as antagonist
Mus musculus [3] = assay: Anti-inflammatory activity against DSS-induced acute ulcerative colitis intrarectal dosed C57BL/6J mouse model assessed as reduction in inflammatory infiltration administered daily from 1 to 7 days by H and E staining based microscopic analysis; format: functional, organism-based; conditions: route rec, time 1-7 day
P2Y purinoceptor 6 [4] = biological target: T1, P2Y purinoceptor 6; assay: Binding affinity to human recombinant P2Y6R assessed as dissociation constant by grating-coupled interferometry analysis
HT-29 = assay: Cytotoxicity against human HT-29 cells assessed as inhibition of cell growth at below 10 uM incubated for 12 to 24 hrs by CCK-8 assay; format: functional, cell-based; conditions: time 12-24 hrs
A549 = assay: Cytotoxicity against human A549 cells assessed as inhibition of cell growth at below 10 uM incubated for 12 hrs by CCK-8 assay; format: functional, cell-based
[5] = AUC (0 to t) in Sprague-Dawley rat at 2 mg/kg, iv measured at 3 to 480 mins by LC-MS/MS analysis; format: ADME, organism-based; design: dose 2 mg/kg, time 3-480 min, route iv; conditions: in vivo
[6] = Cmax in Sprague-Dawley rat at 2 mg/kg, iv measured at 3 to 480 mins by LC-MS/MS analysis; format: ADME, organism-based; design: time upper 480 min, time lower 3 min, dose 2 mg/kg, route iv; conditions: in vivo
[7] = Half life in Sprague-Dawley rat at 2 mg/kg, iv measured at 3 to 480 mins by LC-MS/MS analysis; format: ADME, organism-based; conditions: in vivo, time 3-480 min
[8] = Clearance in Sprague-Dawley rat at 2 mg/kg, iv measured at 3 to 480 mins by LC-MS/MS analysis; format: ADME, organism-based; conditions: in vivo, time 3-480 min
[9] = MRT in Sprague-Dawley rat at 2 mg/kg, iv measured at 3 to 480 mins by LC-MS/MS analysis; format: ADME, organism-based; conditions: in vivo, time 3-480 min
[10] = Volume of distribution in Sprague-Dawley rat at 2 mg/kg, iv measured at 3 to 480 mins by LC-MS/MS analysis; format: ADME, organism-based; conditions: in vivo, time 3-480 min
[11] = AUC (0 to t) in Sprague-Dawley rat at 20 mg/kg, po measured at 10 to 720 mins by LC-MS/MS analysis; format: ADME, organism-based; design: time upper 720 min, time lower 10 min, dose 20 mg/kg, route po; conditions: in vivo
[12] = Cmax in Sprague-Dawley rat at 20 mg/kg, po measured at 10 to 720 mins by LC-MS/MS analysis; format: ADME, organism-based; design: time upper 720 min, dose 20 mg/kg, time lower 10 min, route po; conditions: in vivo
[13] = Half life in Sprague-Dawley rat at 20 mg/kg, po measured at 10 to 720 mins by LC-MS/MS analysis; format: ADME, organism-based; conditions: in vivo, time 10-720 min
[14] = Tmax in Sprague-Dawley rat at 20 mg/kg, po measured at 10 to 720 mins by LC-MS/MS analysis; format: ADME, organism-based; conditions: in vivo, time 10-720 min
[15] = Oral bioavailability in Sprague-Dawley rat at 20 mg/kg measured at 10 to 720 mins by LC-MS/MS analysis; format: ADME, organism-based; conditions: in vivo, time 10-720 min
Mus musculus [16] = assay: Anti-inflammatory activity against DSS-induced acute ulcerative colitis intrarectal dosed C57BL/6J mouse model assessed as decrease in spleen index administered daily from 1 to 7 days; format: functional, organism-based; conditions: route rec, time 1-7 day
Mus musculus [17] = assay: Anti-inflammatory activity against DSS-induced acute ulcerative colitis intrarectal dosed C57BL/6J mouse model assessed as […] length administered daily from 1 to 7 days; format: functional, organism-based; conditions: route rec, time 1-7 day
Mus musculus [18] = assay: Anti-inflammatory activity against DSS-induced acute ulcerative colitis intrarectal dosed C57BL/6J mouse model assessed as decrease in crypt necrosis administered daily from 1 to 7 days by H and E staining based microscopic analysis; format: functional, organism-based; conditions: route rec, time 1-7 day
Mus musculus [19] = assay: Anti-inflammatory activity against DSS-induced acute ulcerative colitis intrarectal dosed C57BL/6J mouse model assessed as decrease in goblet cells administered daily from 1 to 7 days by H and E staining based microscopic analysis; format: functional, organism-based; conditions: route rec, time 1-7 day
Mus musculus [20] = assay: Anti-inflammatory activity against DSS-induced acute ulcerative colitis intrarectal dosed C57BL/6J mouse model assessed as decrease in mucosal damage administered daily from 1 to 7 days by H and E staining based microscopic analysis; format: functional, organism-based; conditions: route rec, time 1-7 day
Mus musculus [21] = assay: Anti-inflammatory activity against DSS-induced acute ulcerative colitis intrarectal dosed C57BL/6J mouse model assessed as […] Occludin expression at high dose measured after 8 hrs by Western blot analysis; format: functional, organism-based; conditions: route rec
Mus musculus [22] = assay: Anti-inflammatory activity against DSS-induced acute ulcerative colitis intrarectal dosed C57BL/6J mouse model assessed as […] ZO-1 expression at high dose measured after 8 hrs by Western blot analysis; format: functional, organism-based; conditions: route rec
Mus musculus [23] = assay: Anti-inflammatory activity against DSS-induced acute ulcerative colitis intrarectal dosed C57BL/6J mouse model assessed as […] claudin-1 expression at high dose measured after 8 hrs by Western blot analysis; format: functional, organism-based; conditions: route rec
Mus musculus [24] = assay: Inhibition of NLRP3 inflammasome activation in DSS-induced acute ulcerative colitis intrarectal dosed C57BL/6J mouse model assessed as decrease in colon NLRP3 expression measured after 8 hrs by Western blot analysis; format: functional, organism-based; conditions: route rec
Mus musculus [25] = assay: Inhibition of NLRP3 inflammasome activation in DSS-induced acute ulcerative colitis intrarectal dosed C57BL/6J mouse model assessed as decrease in colon ASC expression measured after 8 hrs by Western blot analysis; format: functional, organism-based; conditions: route rec
Mus musculus [26] = assay: Inhibition of NLRP3 inflammasome activation in DSS-induced acute ulcerative colitis intrarectal dosed C57BL/6J mouse model assessed as decrease in colon caspase-1 expression measured after 8 hrs by Western blot analysis; format: functional, organism-based; conditions: route rec
Mus musculus [27] = assay: Anti-inflammatory activity against LPS-induced acute lung injury C57BL/6J mouse model assessed as reduction in pulmonary edema administered IT(Intratracheal) pretreated with LPS followed by compound addition and measured after 12 hrs; format: functional, organism-based; conditions: dose 1-5 mg/kg
Mus musculus [28] = assay: (§1) Anti-inflammatory activity against LPS-induced acute lung injury C57BL/6J mouse model assessed as reduction in inflammatory infiltration in BALF administered IT(Intratracheal) pretreated with LPS followed by compound addition and measured after 12 hrs; format: functional, organism-based; conditions: dose 1-5 mg/kg
Mus musculus [29] = assay: as §1, with “lung at 1 to 5 mg/kg,” for “BALF administered”, “hrs by H and E staining based microscopic analysis” for “hrs”; format: functional, organism-based; conditions: dose 1-5 mg/kg
Mus musculus [30] = assay: Anti-inflammatory activity against LPS-induced acute lung injury C57BL/6J mouse model assessed as restoration of lung structure at 1 to 5 mg/kg, IT(Intratracheal) pretreated with LPS followed by compound addition and measured after 12 hrs by H and E staining based microscopic analysis; format: functional, organism-based; conditions: dose 1-5 mg/kg
Mus musculus [31] = assay: Anti-inflammatory activity against LPS-induced acute lung injury C57BL/6J mouse model assessed as decrease in lung TNF-alpha mRNA expression level 1 to 5 mg/kg, IT(Intratracheal) pretreated with LPS followed by compound addition and measured after 12 hrs RT-PCR analysis; format: functional, organism-based; conditions: dose 1-5 mg/kg
Mus musculus [32] = assay: Anti-inflammatory activity against LPS-induced acute lung injury C57BL/6J mouse model assessed as decrease in lung IL-1beta mRNA expression level 1 to 5 mg/kg, IT(Intratracheal) pretreated with LPS followed by compound addition and measured after 12 hrs RT-PCR analysis; format: functional, organism-based; conditions: dose 1-5 mg/kg
Mus musculus [33] = assay: Anti-inflammatory activity against LPS-induced acute lung injury C57BL/6J mouse model assessed as decrease in TNF-alpha secretion in BALF 1 to 5 mg/kg, IT(Intratracheal) pretreated with LPS followed by compound addition and measured after 12 hrs ELISA analysis; format: functional, organism-based; conditions: dose 1-5 mg/kg
Mus musculus [34] = assay: Anti-inflammatory activity against LPS-induced acute lung injury C57BL/6J mouse model assessed as decrease in IL-1beta secretion in BALF 1 to 5 mg/kg, IT(Intratracheal) pretreated with LPS followed by compound addition and measured after 12 hrs ELISA analysis; format: functional, organism-based; conditions: dose 1-5 mg/kg
Mus musculus [35] = assay: Anti-inflammatory activity against LPS-induced acute lung injury C57BL/6J mouse model assessed as reversal of increase in TLR4 expression level 1 to 5 mg/kg, IT(Intratracheal) pretreated with LPS followed by compound addition and measured after 12 hrs by Western blot analysis; format: functional, organism-based; conditions: dose 1-5 mg/kg
Mus musculus [36] = assay: Anti-inflammatory activity against LPS-induced acute lung injury C57BL/6J mouse model assessed as reversal of increase in MyD88 expression level 1 to 5 mg/kg, IT(Intratracheal) pretreated with LPS followed by compound addition and measured after 12 hrs by Western blot analysis; format: functional, organism-based; conditions: dose 1-5 mg/kg
Mus musculus [37] = assay: Anti-inflammatory activity against LPS-induced acute lung injury C57BL/6J mouse model assessed as reversal of increase in ERK-phosphorylation level 1 to 5 mg/kg, IT(Intratracheal) pretreated with LPS followed by compound addition and measured after 12 hrs by Western blot analysis; format: functional, organism-based; conditions: dose 1-5 mg/kg
Mus musculus [38] = assay: Anti-inflammatory activity against LPS-induced acute lung injury C57BL/6J mouse model assessed as reversal of increase in p-38 phosphorylation level 1 to 5 mg/kg, IT(Intratracheal) pretreated with LPS followed by compound addition and measured after 12 hrs by Western blot analysis; format: functional, organism-based; conditions: dose 1-5 mg/kg

T1 sequence (Q15077 whole entry): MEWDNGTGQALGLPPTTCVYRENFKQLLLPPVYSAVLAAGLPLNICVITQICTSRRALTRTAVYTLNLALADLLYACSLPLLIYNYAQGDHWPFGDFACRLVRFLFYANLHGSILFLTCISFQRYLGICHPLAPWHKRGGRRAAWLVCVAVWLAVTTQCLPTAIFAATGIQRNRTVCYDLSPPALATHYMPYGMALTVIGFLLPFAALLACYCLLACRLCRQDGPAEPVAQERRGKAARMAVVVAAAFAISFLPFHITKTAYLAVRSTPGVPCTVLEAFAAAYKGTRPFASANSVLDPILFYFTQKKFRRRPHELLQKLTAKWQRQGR

Compound `CC(C)(C)n1nc(-c2nc3cc([N+](=O)[O-])ccc3[nH]2)cc1-c1ccco1` has an IC50 (P2Y purinoceptor 6 [1]) of 12.6 nM.
`S=C=Nc1cccc(NC(=S)NCCCCNC(=S)Nc2cccc(N=C=S)c2)c1` gave an IC50 (P2Y purinoceptor 6 [1]) of 27.5 nM.
`CC(C)(C)n1nc(-c2nc3cc(OC(F)(F)F)ccc3[nH]2)cc1-c1ccco1` gave an IC50 (P2Y purinoceptor 6 [1]) of 128 nM.
For `CC(C)(C)n1nc(-c2nc3cc(C(=O)NCCOCCOCCOCCNC(=O)CCCC[C@@H]4SC[C@@H]5NC(=O)N[C@@H]54)ccc3[nH]2)cc1-c1ccco1`, the Activity (P2Y purinoceptor 6 [2]) was “Active”.
For `CC(C)(C)n1nc(-c2nc3cc(Cl)ccc3[nH]2)cc1-c1ccco1`, the Activity (Mus musculus [3]) was “Active”, the IC50 (P2Y purinoceptor 6 [1]) was 5.91 nM and the Kd (P2Y purinoceptor 6 [4]) was 3.47 µM. The inhibition (HT-29) was “inactive”, the inhibition (A549) was “inactive” and the AUC(0-t) [5] was 261 ng·h/mL. For the same compound, the Cmax [6] was 1050 ng/mL, the half-life [7] was 109 min and the clearance [8] was 130 mL/min/kg. The MRT [9] was 34.5 min, the Vd [10] was 20.1 L/kg and the AUC(0-t) [11] was 415 ng·h/mL. It also gave a Cmax [12] of 53.7 ng/mL, a half-life [13] of 388 min and a Tmax [14] of 2 h. For the same compound, the bioavailability [15] was 15.9%, the Activity (Mus musculus [16]) was “Dose-Dependent Effect” and the Activity (Mus musculus [17]) was “Dose-Dependent Effect”. For the same compound, the Activity (Mus musculus [18]) was “Active”, the Activity (Mus musculus [19]) was “Active” and the Activity (Mus musculus [20]) was “Active”. The Activity (Mus musculus [21]) was “Active”, the Activity (Mus musculus [22]) was “Active” and the Activity (Mus musculus [23]) was “Active”. For the same compound, the inhibition (Mus musculus [24]) was “Active”, the inhibition (Mus musculus [25]) was “Active” and the inhibition (Mus musculus [26]) was “Active”. For the same compound, the Activity (Mus musculus [27]) was “Dose-Dependent Effect”, the Activity (Mus musculus [28]) was “Dose-Dependent Effect” and the Activity (Mus musculus [29]) was “Active”. For the same compound, the Activity (Mus musculus [30]) was “Active”, the Activity (Mus musculus [31]) was “Active” and the Activity (Mus musculus [32]) was “Active”. The Activity (Mus musculus [33]) was “Active”, the Activity (Mus musculus [34]) was “Active” and the Activity (Mus musculus [35]) was “Active”. The Activity (Mus musculus [36]) was “Active”, the Activity (Mus musculus [37]) was “Active” and the Activity (Mus musculus [38]) was “Active”.
`Cc1ccc2oc(-c3cc(-c4ccc[nH]4)n(C(C)(C)C)n3)nc2c1` showed an IC50 (P2Y purinoceptor 6 [1]) of 256 nM.

Reference: ChEMBL document CHEMBL5380866, “Discovery of Selective P2Y6R Antagonists with High Affinity and In Vivo Efficacy for Inflammatory Disease Therapy” (J Med Chem, 2023)
